Like-named read-outs stand apart in the source and are kept apart here.
Experiments:
[1] = Cytotoxicity on parallel plate without virus, ATPlite readout; type: cell-based; conditions: human, Hep-2 cells (no virus), Hep-2 cells without virus, 5-day incubation
Description: Following extensive parameter testing, the final assay is run as follows: Hep-2 cells are seeded into the inner 60 wells of a 96-well plate at 8,000 cells per well in a volume of 50 μL using Growth Media (DMEM without phenol red, 1% L-Glut, 1% Penn/Strep, 1% nonessential amino acids, 10% heat-inactivated FBS). 2-fold serial dilutions of control and test compounds are added to the wells in duplicate in a total volume of 25 μL. Viral stock is then added to the wells at a multiplicity of infection (MOI) of 0.1 in a volume of 25 μL, bringing the total volume of each well to 100 μL. The MOI is calculated using the PFU/mL, or TCID50 if unavailable. Each 96-well plate has a control column of 6 wells with cells and virus but no compound (negative control, max CPE), a column with cells but no compound or virus (positive control, minimum CPE), and a column with no cells or virus or compound (background plate/reagent control). The control wells with cells but no virus are given an additional 25 uL of growth media containing an equal quantity of sucrose as those wells receiving the viral stock in order to keep consistent in media and volume conditions. The outer wells of the plate are filled with 125 μL of moat media (DMEM, 1% Penn/Strep) to act as a thermal and evaporative moat around the test wells. Following a 5-day incubation period, the plates are read using ATPlite (50 uL added per well), which quantifies the amount of ATP (a measure of cell health) present in each well. Assay plates are read using the Envision luminometer. In parallel, cytotoxicity is examined on an additional 96-well plate treated in an identical manner, but substituting the 25 μL of viral stock for 25 μL of growth media. […] EC50 ranges are as follows: A<0.4 μM; B 0.4-0.8 μM; C>0.8 μM and CC50 ranges are as follows: A>50 μM; B 10-50 μM; C<10 μM.

[2] = system: Human RSV-A (“Long” strain); assay: RSV-A assay: inhibition of cytopathic effect in Hep-2 cells, ATPlite readout; type: cell-based, Human respiratory syncytial virus (HRSV); conditions: read-out: Human RSV-A (“Long” strain) EC50
In short: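 Cytopathic-effect protection was read as ATP content (ATPlite luminescence) after a 5-day incubation. Setup: Hep-2 cells at 8,000 per well, RSV-A Long at MOI 0.1, 2-fold serial compound dilutions in duplicate. Cytotoxicity (CC50) was measured on an identical uninfected plate run in parallel.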

[3] = human respiratory syncytial virus, HEp-2, 120 h
[4] = Hep-2 cells, MOI 0.1, 5-day incubation, ATPlite

| SMILES | CC50 at 5 days [1] | EC50 [2, 3] | EC50 [2, 4] |
| --- | --- | --- | --- |
| COCCOc1cccc(-c2nnc(NC3N=C(c4ccccc4)c4ccccc4NC3=O)o2)c1 (stereo not shown) [Example 1] | > 50000 nM | > 800 nM |  |
| O=C1Nc2ccccc2C(c2ccccc2)=NC1Nc1nnc(-c2ccccc2)o1 (stereo not shown) [Example 2] | > 50000 nM | > 800 nM |  |
| O=C1Nc2ccccc2C(c2ccccc2)=NC1Nc1nnc(-c2cccc(F)c2)o1 (stereo not shown) [Example 3] | > 50000 nM | > 800 nM |  |
| COc1cccc(-c2nnc(NC3N=C(c4ccccc4)c4ccccc4NC3=O)o2)c1 (stereo not shown) [Example 4] | > 50000 nM | > 800 nM |  |
| O=C1Nc2ccccc2C(c2ccccc2)=NC1Nc1nnc(C2CC2)o1 (stereo not shown) [Example 5] | > 50000 nM | > 800 nM |  |
| O=C1Nc2ccccc2C(c2ccccc2)=NC1Nc1nnc(-c2ccccc2F)o1 (stereo not shown) [Example 6] | > 50000 nM | > 800 nM |  |
| O=C1Nc2ccccc2C(c2ccccc2)=N[C@H]1Nc1nnc(-c2ccc(F)cc2)o1 [Example 7b] | 10000 to 50000 nM | > 800 nM |  |
| COc1ccc(-c2nnc(NC3N=C(c4ccccc4)c4ccccc4NC3=O)o2)cc1 (stereo not shown) [Example 8] | > 50000 nM | > 800 nM |  |
| COc1ccccc1-c1nnc(NC2N=C(c3ccccc3)c3ccccc3NC2=O)o1 (stereo not shown) [Example 9] | > 50000 nM | > 800 nM |  |
| O=C1Nc2ccccc2C(c2ccccc2)=N[C@@H]1Nc1nnc(-c2ccco2)o1 [Example 10a] | > 50000 nM | 400 to 800 nM |  |
| O=C1Nc2ccccc2C(c2ccccc2)=N[C@H]1Nc1nnc(-c2ccco2)o1 [Example 10b] | < 10000 nM | > 800 nM |  |
| O=C1Nc2ccccc2C(c2ccccc2)=NC1Nc1nnc(-c2ccccn2)o1 (stereo not shown) [Example 11] | > 50000 nM | 400 to 800 nM |  |
| N#Cc1ccn2ncc(-c3nnc(N[C@H]4N=C(c5ccccc5)c5ccccc5NC4=O)o3)c2c1 [Example 441] |  | > 800 nM |  |
| O=C1Nc2ccccc2C(c2ccccc2)=N[C@@H]1Nc1ncc(-c2ncc(C(F)(F)F)cc2N2CCOCC2)o1 [Example 442] |  |  | < 400 nM |
| O=C1Nc2ccccc2C(c2ccccc2)=N[C@@H]1Nc1nnc(-c2cn(-c3ccc(C(F)(F)F)nc3)nc2N2CCOCC2)o1 [Example 444] |  |  | < 400 nM |
| O=C1Nc2ccccc2C(c2ccccc2)=N[C@@H]1Nc1nnc(-c2cn(CC3CC3)nc2N2CCOCC2)o1 [Example 446] |  |  | < 400 nM |
| O=C1Nc2ccccc2C(c2ccccc2)=N[C@H]1Nc1nnc(-c2cn(CC3CC3)nc2N2CCOCC2)o1 [Example 447] |  |  | 400 to 800 nM |
| O=C1Nc2ccccc2C(c2ccccc2)=NC1Nc1nnc(-c2cn(-c3ccc(F)cn3)nc2N2CCOCC2)o1 (stereo not shown) [Example 448] |  | < 400 nM |  |
| COCc1ccn2ncc(-c3nnc(N[C@H]4N=C(c5ccccc5)c5ccccc5NC4=O)o3)c2c1 [Example 449] |  | > 800 nM |  |
| O=C1Nc2ccccc2C(c2ccccc2)=NC1Nc1nnc(-c2ncc(C(F)(F)F)cc2CCO)o1 (stereo not shown) [Example 450] |  | > 800 nM |  |
| COC[C@@H](C)Nc1sc(C(F)(F)F)nc1-c1nnc(N[C@H]2N=C(c3ccccc3)c3ccccc3NC2=O)o1 [Example 451] |  | 400 to 800 nM |  |
| CO[C@@H](C)CNc1sc(C(F)(F)F)nc1-c1nnc(N[C@H]2N=C(c3ccccc3)c3ccccc3NC2=O)o1 [Example 452] |  | < 400 nM |  |
| O=C1Nc2ccccc2C(c2ccccc2)=N[C@@H]1Nc1nnc(-c2nc(C(F)(F)F)sc2C2=CCOCC2)o1 [Example 453] |  | < 400 nM |  |
| O=C1Nc2ccccc2C(c2ccccc2)=N[C@@H]1Nc1nnc(-c2nc(C(F)(F)C(F)(F)F)sc2N2CCOCC2)o1 [Example 454] |  | < 400 nM |  |
| O=C1Nc2ccccc2C(c2ccccc2)=N[C@@H]1Nc1nnc(-c2nc(C3(O)CCC3)sc2N2CCOCC2)o1 [Example 455] |  | < 400 nM |  |
| COC[C@H]1CCCN1c1sc(C(F)(F)F)nc1-c1nnc(N[C@H]2N=C(c3ccccc3)c3ccccc3NC2=O)o1 [Example 456] |  | > 800 nM |  |

| SMILES | CC50 at 5 days [1] | EC50 [2, 3] | EC50 [2, 4] |
| --- | --- | --- | --- |
| COC[C@@H]1CCCN1c1sc(C(F)(F)F)nc1-c1nnc(N[C@H]2N=C(c3ccccc3)c3ccccc3NC2=O)o1 [Example 457] |  | > 800 nM |  |
| CCOC1(c2nc(-c3nnc(N[C@H]4N=C(c5ccccc5)c5ccccc5NC4=O)o3)c(N3CCOCC3)s2)CCC1 [Example 458] |  | < 400 nM |  |
| CC(C)(c1nc(-c2nnc(N[C@H]3N=C(c4ccccc4)c4ccccc4NC3=O)o2)c(N2CCOCC2)s1)N1CCOCC1 [Example 459] |  | < 400 nM |  |
| O=C1Nc2ccccc2C(c2ccccc2)=N[C@@H]1Nc1nnc(-c2ncc(C(F)F)cc2N2CCOCC2)o1 [Example 461] |  | < 400 nM |  |
| O=C1Nc2ccccc2C(c2ccccc2)=N[C@@H]1Nc1cc(-c2ccccc2)cnn1 [Example 462] |  | > 800 nM |  |
| O=C1Nc2ccccc2C(c2ccccc2)=NC1Nc1cc(N2CCOCC2)cnn1 (stereo not shown) [Example 463] |  | > 800 nM |  |
| O=C1Nc2ccccc2C(c2ccccc2)=N[C@@H]1Nc1nnc(-c2ncc(C(F)(F)F)cc2N[C@@H]2CCOC2)o1 [Example 464] |  | < 400 nM |  |
| Cc1nsc(N2CCOCC2)c1-c1nnc(N[C@H]2N=C(c3ccccc3)c3ccccc3NC2=O)o1 [Example 465] |  | 400 to 800 nM |  |
| O=C1Nc2ccccc2C(c2ccccc2)=N[C@@H]1Nc1nnc(-c2ncc(C(F)(F)F)cc2N2CCOc3ccccc32)o1 [Example 468] |  | > 800 nM |  |
| O=C1Nc2ccccc2C(c2ccccc2)=N[C@@H]1Nc1nnc(-c2ncc(C(F)(F)F)cc2NC2COC2)o1 [Example 469] |  | < 400 nM |  |
| O=C1Nc2ccccc2C(c2ccccc2)=N[C@@H]1Nc1nnc(-c2ncc(C(F)(F)F)cc2N[C@H]2CCOC2)o1 [Example 470] |  | > 800 nM |  |
| O=C1Nc2ccccc2C(c2ccccc2)=N[C@@H]1Nc1nnc(-c2ccsc2N2CCOCC2)o1 [Example 471] |  | < 400 nM |  |
| COCCNc1sccc1-c1nnc(N[C@H]2N=C(c3ccccc3)c3ccccc3NC2=O)o1 [Example 472] |  | > 800 nM |  |
| COCCNc1sc(C(F)(F)F)nc1-c1nnc(N[C@H]2N=C(c3ccccc3)c3ccccc3NC2=O)o1 [Example 473] |  | < 400 nM |  |
| O=C1Nc2ccccc2C(c2ccccc2)=N[C@@H]1Nc1nnc(-c2nc(C(F)(F)F)sc2N[C@@H]2CCOC2)o1 [Example 474] |  | < 400 nM |  |
| O=C1Nc2ccccc2C(c2ccccc2)=N[C@@H]1Nc1nnc(-c2nc(C(F)(F)F)sc2NCC2COC2)o1 [Example 475] |  | 400 to 800 nM |  |
| O=C1Nc2ccccc2C(c2ccccc2)=N[C@@H]1Nc1nnc(-c2oc3cc(F)ccc3c2N2CCOCC2)o1 [Example 476] |  | 400 to 800 nM |  |
| O=C1Nc2ccccc2C(c2ccccc2)=N[C@@H]1Nc1nnc(-c2oc3cccc(F)c3c2N2CCOCC2)o1 [Example 477] |  | < 400 nM |  |
| CC1(c2nc(-c3nnc(N[C@H]4N=C(c5ccccc5)c5ccccc5NC4=O)o3)c(N3CCOCC3)s2)CCC1 [Example 478] |  | < 400 nM |  |
| COCCCc1sc(C)nc1-c1nnc(N[C@H]2N=C(c3ccccc3)c3ccccc3NC2=O)o1 [Example 479] |  | > 800 nM |  |
| COC[C@@H]1C[C@H]1c1cc(C(F)(F)F)cnc1-c1nnc(N[C@@H]2N=C(c3ccccc3)c3ccccc3NC2=O)o1 [Example 481] |  |  | > 800 nM |
| COC[C@H]1C[C@@H]1c1cc(C(F)(F)F)cnc1-c1nnc(N[C@H]2N=C(c3ccccc3)c3ccccc3NC2=O)o1 [Example 482] |  |  | > 800 nM |
| COC[C@H]1C[C@@H]1c1cc(C(F)(F)F)cnc1-c1nnc(N[C@@H]2N=C(c3ccccc3)c3ccccc3NC2=O)o1 [Example 483] |  |  | > 800 nM |
| O=C1Nc2ccccc2C(c2ccccc2)=N[C@@H]1Nc1nnc(-c2cn(CC(F)(F)F)nc2N2CCOCC2)o1 [Example 488] |  |  | < 400 nM |
| O=C1Nc2ccccc2C(c2ccccc2)=N[C@H]1Nc1nnc(-c2cn(CC(F)(F)F)nc2N2CCOCC2)o1 [Example 489] |  |  | > 800 nM |
| O=C1Nc2ccccc2C(c2ccccc2)=N[C@@H]1Nc1nnc(-c2nc(C3(C(F)(F)F)CCC3)sc2N2CCOCC2)o1 [Example 490] |  | < 400 nM |  |

Reference: US11390631B1, “Benzodiazepine derivatives as RSV inhibitors” (priority 2015, dated 2022)
